Data taken from patent publication US20240409880A1, “METHODS FOR INCREASING ALGAE PRODUCTIVITY USING HIGH SILICA CONCENTRATIONS” (Global Algae Technology, LLC, priority 2023, published 2024).

Test system: Nitzschia inconspicua
Experiment: Cultivation of Nitzschia inconspicua in an open raceway pond at high silica loading, lipid content of harvested slurry
Assay type: cell-based
Protocol: Nitzschia inconspicua was cultivated at pH 9.6 with a silica loading of 10-11 mM in an open raceway pond for 20 days. Silica was added to the culture at a concentration of 1-3 mM each day to maintain the 10-11 mM silica loading as the algae grew and the batch volume increased. The silica loading was reduced to below 5 mM by diluting the culture without adding silica. The third day after reducing the silica loading, the loading was 2 mM. The algae slurry was harvested on the third day and analyzed for lipid content. The lipid content was 47% of the ash-free dry weight of the biomass. This is a substantial increase in lipid content compared to the typical 5-10% lipid content when the algae is grown in standard media with silica concentrations below 500 μM.

O=[Si]=O [silica]
typical lipid content (algae grown in standard media with silica concentrations below 500 μM): 5-10%
lipid content (pH 9.6, silica loading 10-11 mM for 20 days, then reduced to below 5 mM, loading 2 mM at harvest on the third day): 47 % of the ash-free dry weight of the biomass
